Data on eleven substances can be found in patent publication US7226598B2, “Peptide inhibitors of HIV entry” (priority 1998, dated 2007).

In data set [1] the test system is HIV-1. As to the method: HIV Infectivity Assay. Inhibitory activity of IQN17 and derivatives was determined in an HIV luciferase assay (Chen et al., 1994). Specifically, virus was made by cotransfecting 293T cells with an HIV-1 genome containing a frame-shift mutation in env and luciferase replacing the nef gene (NL43LucR-E-) along with pCMVHXB2, an expression vector with the HXB2 gp160 gene. The resultant virus is only viable for one round of infection since its genome lacks the envelope gene. The cellular debris was removed by low-speed centrifugation. The remaining viral supernatant was used to infect HOS-CD4/Fusion cells (N. Landau, National Institutes of Health AIDS Reagent Program) in the presence of the potentially inhibitory peptides. Two days post infection, the cells were lysed and luciferase activity was monitored on a Wallac AutoLumat LB953 luminometer (Gaithersburg, Md.). IC50s (the peptide concentration at which half of the viral infection is inhibited) were calculated by fitting the data to a Langmuir equation [y=k/(1+[peptide]/IC50)], where y=luciferase activity and k is a scaling constant.

Data set [2] in a line: Solubility of the peptide (observation).
Data set [3] is described as follows: Circular dichroism (helicity). The format is physicochemical. Particulars: for CD minimum at 222 nm: 10 μM; for θ222 nm: 20 μM solution of peptide in PBS (legend of Table 1); for helicity: at 20 μM. As to the method: Circular Dichroism. All CD measurements were performed on an Aviv 62 DS cirucular dichroism spectrometer. […] The mean residue ellipticity (θ) was calculated by dividing the raw signal by peptide concentration (M), pathlength (mm) and number of amino acids. Percent helicity was calculated according to Chen et al. (Biochemistry, 13, 1974, p3350). Thermal denaturation scans of 10 μM peptide solutions in PBS were recorded at 222 nm. The peptide was heated at two degree intervals starting at 4° C., with an equilibration time of 1.5 minutes and an averaging time of 60 seconds.

A short description of data set [4]: Thermal denaturation followed by CD at 222 nm. The format is physicochemical. As to the method: Circular Dichroism. All CD measurements were performed on an Aviv 62 DS cirucular dichroism spectrometer. Standard scans were performed on 10 μM solutions of peptide in PBS (50 mM sodium phosphate, 150 mM sodium chloride [pH 7.4]) from 200 to 260 nm in a 1 cm pathlength cuvette with a 5 second averaging time. The mean residue ellipticity (θ) was calculated by dividing the raw signal by peptide concentration (M), pathlength (mm) and number of amino acids. Percent helicity was calculated according to Chen et al. (Biochemistry, 13, 1974, p3350). Thermal denaturation scans of 10 μM peptide solutions in PBS were recorded at 222 nm. The peptide was heated at two degree intervals starting at 4° C., with an equilibration time of 1.5 minutes and an averaging time of 60 seconds.

The subject of data set [5] is HIV, modified to contain a luciferase reporter gene. It counts as cell-based. Particulars: HOS cells expressing CD4 and coreceptor, 6 hours with virus, 48 hours more; read-out: IC50 of inhibition of luciferase activity.
Description: HIV, modified to contain a luciferase reporter gene, is mixed with HOS cells expressing CD4 and coreceptor in the presence of diluted protein for 6 hours at 37° C. […] The virus solution is replaced, and the HOS culture is incubated 48 hours more in fresh media. Luciferase activity is measured in a luminometer.
A short description of data set [6]: Sedimentation equilibrium (analytical ultracentrifugation). The format is physicochemical. As to the method:
Sedimentation Equilibrium. All measurements were recorded on a Beckman XL-A analytical ultracentrifuge equipped with an An-60 Ti rotor. Lyophilized peptide was resuspended in water, and the peptide concentration was determined (Edelhoch, 1967). The solution was diluted to 100–200 μM and then dialized overnight against PBS. Following dialysis, the concentration was redetermined and the appropriate dilutions were made, using the dialysis buffer. The samples were centrifuged at speeds ranging from 19,000 to 25,000 RPM.

In data set [7] the test system is syncytia formation between HELA cells expressing CD4 and coreceptor and CHO cells expressing gp160. Kind of data set: Cell/cell fusion (syncytia) assay. It counts as cell-based, HIV. Particulars: HELA CD4/coreceptor + CHO gp160/Tat, 8 to 24 hours; read-out: IC50 of inhibition of syncytia formation.
Description: Assays were carried out to assess the ability of IQN17 to interact with the C-region of gp41 and inhibit function of the fusion protein. This inhibition of membrane fusion by IQN17 and IQN23 and GCN4-pIQI was assessed using a cell based assay. Proteins IQN17, IQN23 and GCN4-pIQI are serially diluted in modified DMEM media with 5% FCS and aliquoted into slide chambers. HELA cells (4×10^4) expressing CD4 and coreceptor and containing a βgalactosidase gene under the control of the Tat promoter are added. CHO cells (2×10^4) expressing gp160 (precursor protein to gp120/gp41) and Tat are also added. The 400 μl miniculture is incubated at 37° for 8 to 24 hours; fused cells (syncytia) will transcribe and translate β-galactosidase. The cells are fixed in gluteraldehyde and exposed to X-gal/Fe solution for one hour. Syncytia that contain P-galactosidase turn blue-green.
Data set [8] in a line: Thermal denaturation followed by CD at 222 nm. It counts as physicochemical. Particulars: in 2 M GuHCl.
Where [9] appears, read: read-out: IC50 (concentration at which half of viral infectivity is inhibited), Table 1.
Setting [10] is: read-out: IC50 for viral infectivity.
[11] abbreviates: midpoint of thermal denaturation, 10 μM peptide in PBS.
The mark [12] stands for this setting: 20 μM peptide in PBS, 3.0 = discrete trimer.

Like-named read-outs stand apart in the source and are kept apart here. Marks after values point to notes of the source that are not given here. Where only a bound is given, the exact number is not on record here.

Take “Ac-LLQLTVWGIKQLQARIL-NH2 [N17, reference compound]”: the IC50 in data set [1] (setting [9]) and in data set [1] (setting [10]) was roughly 10000 nM throughout. The solubility entry in data set [2] was “difficult to get into solution—it precipitates”.
With “KQKKIENEIARIKKLLQLTVWGIKWLWARIL [IQ15N17]”, the IC50 in data set [1] (setting [9]) was roughly 10000 nM. Further, in data set [3], the “CD minimum at 222 nm” value is on record as “approximately −27,000 deg cm^2 dmol^−1” and the θ222 nm is on record as ~−27,000 deg cm^2 dmol^−1. Also, the “thermal stability lower than that of IQ22N17” value in [4] was “about 10 degrees”. The “Melting Temperature” value in [4] (setting [11]) is roughly 64 °C.
Consider “Ac-RMKQIEDKIEEIESKQKKIENEIARIKKLIEAQQHLLQLTVWGIKQLQARIL-NH2 [IQN23]”, for which the IC50 is roughly 80 nM in data set [5], roughly 30 nM in [1] (setting [9]) and roughly 30 nM in [1] (setting [10]). The “gain in inhibitory activity relative to IQN17” value in data set [1] (gp41 residues increased from 17) is listed as roughly 6 fold. The Mobs/Mcalc in [6] (setting [12]) is given as 3.29; in [6] (at 20 μM), 3.3.
Turning to “Ac-KIEEIESKQKKIENEIARIKKLLQLTVWGIKQLQARIL-NH2 [IQ22N17]”, the melting point was ~ 76 °C. Also, the IC50 in data set [1] (setting [9]) was roughly 1000 nM. In addition, the IC50 in [1] (setting [10]) was roughly 1000 nM. In [3], the “CD minimum at 222 nm” value is “approximately −36,000 deg cm^2 dmol^−1” and the θ222 nm was ~−36,000 deg cm^2 dmol^−1. In data set [4] (at 10 μM), the Melting Temperature entry is “below 80 °C”. Moreover, the “Melting Temperature” value in [4] (setting [11]) was roughly 76 °C. Further, the Mobs/Mcalc in data set [6] (determined at 50 μM) is 2.73*.
With “Ac-RMKQIEDKIEEIESKQKKIENEIARIKKLLQLTVWGIKQLQARIL-NH2 [IQN17]”, the melting point is greater than 100 °C. In addition, the IC50 in [7] was 20 to 80 nM. In addition, the IC50 in data set [5] is roughly 250 nM. The IC50 in data set [1] (setting [9]) is roughly 180 nM. For the same substance, the IC50 in data set [1] (setting [10]) was roughly 180 nM. Moreover, in data set [3], the θ222 nm was ~−36,000 deg cm^2 dmol^−1 and the helicity entry was “fully helical”. For the same substance, the Melting Temperature result in data set [4] (at 10 μM) was “above 100 °C”. For the same substance, the Melting Temperature result in data set [4] (concentration not given) was “above 100 °C”. Also, the “Melting Temperature” value in data set [4] (setting [11]) was greater than 100 °C. In addition, in [6] (setting [12]), the Mobs/Mcalc is listed as 3.15. The oligomeric state entry in data set [6] (at 20 μM) is “discretely trimeric”.
On to EIARIKKLLQLTVWGIKQLQARIL [IQ8N17], for which the IC50 in data set [1] (setting [9]) was roughly 10000 nM.
On to “Ac-KIKKIENEIARIKKLLQLTVWGIKQLQARIL-NH2 [II15N17]”, for which the melting point was ~ 76 °C. The IC50 in data set [1] (setting [9]) is roughly 3000 nM. Besides, in data set [1] (setting [10]), the IC50 is roughly 3000 nM. In [3], the “CD minimum at 222 nm” value is given as ~−33,000 deg cm^2 dmol^−1 and the θ222 nm was ~−33,000 deg cm^2 dmol^−1. In data set [4] (setting [11]), the “Melting Temperature” value was roughly 76 °C. Besides, the Mobs/Mcalc in [6] (setting [12]) is recorded as 2.64.
“Ac-KIEEIESKIKKIENEIARIKKLLQLTVWGIKQLQARIL-NH2 [II22N17]” gave a melting point greater than 100 °C. Besides, the IC50 in [1] (setting [9]) was roughly 170 nM. In [1] (setting [10]), the IC50 is roughly 170 nM. In data set [3], the “CD minimum at 222 nm” value was ~−41,000 deg cm^2 dmol^−1 and the θ222 nm was ~−41,000 deg cm^2 dmol^−1. The same substance had a Melting Temperature in [4] (at 10 μM) greater than 100 °C. Also, in data set [4] (setting [11]), the “Melting Temperature” value is greater than 100 °C. In addition, the Mobs/Mcalc in data set [6] (setting [12]) is 3.02.
For “Ac-YGGIKKKEIEAIKKEQEAIKKKIEAIEKEIVQARQLLSGIVQQQNNLLRAIEAQQH-NH2 [IZN26]”, in data set [4] (setting [11]), the “Melting Temperature” value is roughly 82 °C.
“Ac-IKKEIEAIKKEQEAIKKKIEAIEKLLQLTVWGIKQLQARIL-NH2 [IZN17]” yielded a melting point greater than 100 °C. In data set [1] (setting [9]), the IC50 was 5.6 nM. In data set [3], the θ222 nm is recorded as ~−31,000 deg cm^2 dmol^−1 and the helicity entry is “helical”. The oligomeric state entry in [6] (at 20 μM) is recorded as “discretely trimeric”. Also, in data set [8], the “thermal denaturation temperature compared with IQN17” value is “ten degrees higher”.
Regarding “Ac-RMKQIEDKIEEIESKQKKIENEIARIKKLLQLTVWDIKQLQARIL-NH2 [IQN17(G572D), reference compound]”, the IC50 in [1] (setting [9]) and in [1] (setting [10]) was roughly 20000 nM each time. In addition, the θ222 nm in [3] is ~−39,000 deg cm^2 dmol^−1.
